From publication PMC7034945 (RSC Advances, 2019) come the findings set out here.

Where two headings read alike, the source gives them in different places. Where only a bound is given, the exact number is not on record here.

For one data set, the system named is HIV-1 NL4-3 virus. Nature of the data set: Anti-HIV-1 activity, multicycle assay with HIV-1 NL4-3 in TZM-bl cells. The conditions noted are these: for anti-HIV-1 activity (in words): at the test concentration. The data set is classed as cell-based.
Another data set concerns the target HIV-1 CA monomer (Human immunodeficiency virus type 1 group M subtype B, UniProt P12493). Briefly: biochemical. The data set is classed as binding, HIV-1 NL4-3.
A further data set in a line: in vitro. The note with it: human.
Another data set deals with TZM-bl cells. The conditions noted are these: uninfected TZM-bl cells, NA = no cytotoxicity at the test concentration.
For data set [1] the following is noted: measured by HPLC.
[2] abbreviates: Table 2, HIV-1 NL4-3, TZM-bl cells, NA = no anti-HIV-1 activity at the test concentration.
Setting [3] is: Table 1, HIV-1 NL4-3, TZM-bl cells, NA = no anti-HIV-1 activity at the test concentration.

Take `COc1ccc(N(C)C(=O)[C@H](Cc2cc(F)cc(F)c2)NC(=O)c2cccc(-c3cn(Cc4ccc([N+](=O)[O-])cc4)nn3)c2)cc1` [II-10c, (S)-N-(3-(3,5-Difluorophenyl)-1-((4-methoxyphenyl)(methyl)amino)-1-oxopropan-2-yl)-3-(1-(4-nitrobenzyl)-1H-1,2,3-triazol-4-yl)benzamide]: the response in the data set with HIV-1 NL4-3 virus (Human immunodeficiency virus 1, NL43, TZM-bl) was half-maximal at 2.13 ± 0.75 µM (EC50). Also, in the data set with HIV-1 NL4-3 virus (TZM-bl cells), the “anti-HIV-1 activity (in words)” value is “exhibited anti-HIV-1 activity at the test concentration”. The “SI (selectivity index, ratio of CC50/EC50)” value in the data set with HIV-1 NL4-3 virus (Table 2, TZM-bl cells) is reported as greater than 16.66. Also, the dissociation constant (Kd) (usually a measure of binding affinity in units of concentration) on HIV-1 CA monomer is 2.2 ± 0.23 µM. Further, the Papp A→B (usually how fast a substance crosses the layer from the apical side) in “in vitro” (Caco-2, pH 7.4, Mean Papp A to B, Caco-2, 2 μM, 2 hours, pH 7.40) is less than 0.1 nm/s; in “in vitro” (Caco-2, pH 7.4, Rank Papp, Caco-2, A to B, permeability class), less than 5 nm/s; in “in vitro” (Caco-2, pH 7.4, apparent permeability (Papp), Caco-2 cells) it was less than 0.1 nm/s.
On to “(S)-N-(1-((4-Methoxyphenyl)(methyl)amino)-1-oxo-3-phenylpropan-2-yl)-3-(1-(quinolin-2-yl)-1H-1,2,3-triazol-4-yl)benzamide [III-15i]”, for which the EC50 (commonly the midpoint of the concentration-response curve) with HIV-1 NL4-3 virus (setting [2]) is greater than 34.3 µM. For the same compound, the CC50 (as a rule, the concentration giving 50% cytotoxicity) in the data set with TZM-bl cells (Table 2) is greater than 34.3 µM.
Take “(S)-N-(1-((4-Methoxyphenyl)(methyl)amino)-1-oxo-3-phenylpropan-2-yl)-3-(1-(3-(thiophen-3-yl)propyl)-1H-1,2,3-triazol-4-yl)benzamide [III-15h]”: the “anti-HIV-1 activity (in words)” value in the data set on HIV-1 NL4-3 virus (TZM-bl cells) is given as “exhibited anti-HIV-1 activity at the test concentration”. Also, the EC50 in the data set on HIV-1 NL4-3 virus (setting [2]) is 9.37 ± 3.18 µM. This compound displayed a CC50 in the data set with TZM-bl cells (Table 2) greater than 35.4 µM. Further, the log P – broadly, the decadic logarithm of the partition coefficient of the neutral form, usually between octanol and water – in data set [1] stood at 2.36.
“Methyl (S)-4-(4-((3-(3,5-difluorophenyl)-1-((4-methoxyphenyl)(methyl)amino)-1-oxopropan-2-yl)carbamoyl)-1H-1,2,3-triazol-1-yl)benzoate [I-8p]”: in the data set on HIV-1 NL4-3 virus (setting [3]), the EC50 was 14.2 ± 3.46 µM. Besides, the cytotoxic concentration (CC50) in the data set on TZM-bl cells (Table 1) is greater than 18.2 µM.
Turning to “(S)-N-(3-(3,5-Difluorophenyl)-1-((4-methoxyphenyl)(methyl)amino)-1-oxopropan-2-yl)-3-(1-(quinolin-2-yl)-1H-1,2,3-triazol-4-yl)benzamide [II-10i]”, the “anti-HIV-1 activity (in words)” value with HIV-1 NL4-3 virus (TZM-bl cells) was “exhibited anti-HIV-1 activity at the test concentration”. Also, the midpoint of the response with HIV-1 NL4-3 virus (setting [2]), the EC50, lay at 21.5 ± 4.53 µM. In the data set on TZM-bl cells (Table 2), this compound displayed a CC50 greater than 32.3 µM.
The like results for “Ethyl (S)-2-(4-(3-((1-((4-methoxyphenyl)(methyl)amino)-1-oxo-3-phenylpropan-2-yl)carbamoyl)phenyl)-1H-1,2,3-triazol-1-yl)acetate [III-15n]” were, in that order, “lost anti-HIV-1 activity completely”, greater than 36 µM and greater than 36 µM.
Take “N-((S)-3-(3,5-Difluorophenyl)-1-((4-methoxyphenyl)(methyl)amino)-1-oxopropan-2-yl)-1-(2-(hydroxymethyl)-5-(5-methyl-2,6-dioxo-1,2,3,6-tetrahydropyridin-3-yl)tetrahydrofuran-3-yl)-1H-1,2,3-triazole-4-carboxamide [I-8u]”: in the data set on HIV-1 NL4-3 virus (TZM-bl cells), the “anti-HIV-1 activity (in words)” value is reported as “lost its anti-HIV-1 activity”. The compound also had a concentration giving a half-maximal response (EC50) with HIV-1 NL4-3 virus (setting [3]) greater than 15.6 µM. This compound displayed a CC50 in the data set on TZM-bl cells (Table 1) greater than 15.6 µM.
